Reference: PMC8600648 (ACS Omega, 2021)

Target: TMV-CP (tobacco mosaic virus coat protein) (Tobacco mosaic virus (vulgare), UniProt P69687)
Assay: microscale thermophoresis
Format: binding

TMV-CP (tobacco mosaic virus coat protein), sequence (P69687 2-159 limits assumed): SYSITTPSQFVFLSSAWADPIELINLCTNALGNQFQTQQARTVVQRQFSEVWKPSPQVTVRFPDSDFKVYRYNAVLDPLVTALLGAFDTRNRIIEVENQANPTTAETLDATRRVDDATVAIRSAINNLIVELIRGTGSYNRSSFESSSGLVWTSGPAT

## O=c1c(O)c(-c2cc(O)c(O)c(O)c2)oc2cc(O)cc(O)c12 [myricetin, 3,5,7-trihydroxy-2-(3′,4′,5′-trihydroxyphenyl)-4H-chromen-4-one]
  Kd: 62.2 ± 22.2 µM
